“Also recorded” adds a separate entry of the source.
Legend:
wild-type seedlings = experiment: Treatment of wild-type seedlings with synthetic cytokinin (phenocopy of ell mutant morphology); type: in vivo, Arabidopsis; conditions: 30 μM; in the dark or light
Description: From left to right in both FIGS. 1A-1B: wild-type plant; wild-type plant+2ip; ell; and ell+2ip.

ell seedlings = experiment: Exogenous feeding of brassinolide to ell seedlings germinated on agar plates; type: in vivo, Arabidopsis; conditions: 1 μM in growth medium (agar plates); dark or light
Method: FIGS. 13A-13B are photographs showing that the ell phenotype was not corrected by exogenous feeding of brassinolide (1 μM) in either dark (FIG. 13A) or light (FIG. 13B). From left to right in FIGS. 13A-13B: wild-type; ell; wild-type+brassinolide; and ell+brassinolide.
To determine whether the ell mutant phenotype is corrected by exogenous feeding of brassinolide, we germinated ell seedlings on agar plates containing 1 μM brassinolide or 1 μM 24-epibrassinolide (Li et al., Science 272: 398, 1996). […] Thus, it appears that steroid compounds other than BRs are needed to restore an ell mutant to a normal growth and development phenotype, as reflected by the pleiotropic phenotypes such as stunted roots (FIG. 2) and impaired embryogenesis (FIGS. 7A-7F).

SMILES	ell mutant seedling morphology phenocopied in wild-type seedlings (wild-type seedlings)	correction of the ell mutant phenotype by exogenous feeding (ell seedlings)
CC(C)=CCNc1ncnc2nc[nH]c12 [2ip, dimethylallylamino-purine]	phenocopied	–
CC(C)[C@@H](C)[C@@H](O)[C@H](O)[C@@H](C)[C@H]1CC[C@H]2[C@@H]3COC(=O)[C@H]4C[C@H](O)[C@H](O)C[C@]4(C)[C@H]3CC[C@]12C [24-epibrassinolide]	–	did not alter the mutant phenotype
CC(C)[C@H](C)[C@@H](O)[C@H](O)[C@@H](C)[C@H]1CC[C@H]2[C@@H]3COC(=O)[C@H]4C[C@H](O)[C@H](O)C[C@]4(C)[C@H]3CC[C@]12C [brassinolide]	–	not corrected; also recorded: did not alter the mutant phenotype
